The values below come from patent US10344264B2, “Culturing of human embryonic stem cells at the air-liquid interface for differentiation into pancreatic endocrine cells” (Janssen Biotech, Inc., priority 2012, dated 2019).

Where two headings read alike, the source gives them in different places.

Test [1] deals with cells of the human embryonic stem cell line H1.
Protocol: Cells of the human embryonic stem cell line H1 (passage 40) were seeded as single cells at 1×10^5 cells/cm^2 on […] ™ (1:30 dilution; BD Biosciences, NJ)-coated dishes or Matrigel-coated filter inserts (Millipore PIHT 30R 48) in a media comprising of DMEM-F12 (Invitrogen, Ca), Glutamax (1:100 dilution, Invitrogen), 0.25 mM ascorbic acid (Sigma, MO), 100 ng/ml of FGF2 (R & D systems, MN), 1 ng/ml of TGF-B (R & D systems), ITS-X (1:100 dilution), 2% fatty-acid free BSA (Lampire, PA), and 20 ng/ml of IGF-1 (R & D systems), supplemented with 10 μM of Y27632 (Rock inhibitor, Catalog No. Y0503, SigmaAldrich, St. Louis, Mo.). Forty-eight hours post seeding, cultures were washed in incomplete PBS (phosphate buffered saline without Mg or Ca). The cells were then differentiated according to the following protocol: • a) Stage 1 (3 days): Cells were cultured for one day in MCDB-131 medium (Invitrogen Catalog No. 10372-019) supplemented with 2% fatty acid-free BSA (Proliant Catalog No. 68700), 0.0012 g/ml sodium bicarbonate (SigmaAldrich Catalog No. S3187), 1× GlutaMax™ (Invitrogen Catalog No. 35050-079), 4.5 mM D-Glucose (SigmaAldrich Catalog No. G8769), 100 ng/ml GDF8 (R&D Systems) and 1 μM MCX compound. Cells were then cultured for an additional day in MCDB-131 medium supplemented with 2% fatty acid-free BSA, 0.0012 g/ml sodium bicarbonate, 1× GlutaMax™, 4.5 mM D-Glucose, 100 ng/ml GDF8, and 0.1 μM MCX compound. […]
Test [2] has the same test system. This is another data set of the same source.
Description: At Stage 4 and subsequent cultures, mRNA was collected for PCR analysis of relevant pancreatic endoderm/endocrine genes. Total RNA was extracted with the RNeasy® Mini Kit (Qiagen; Valencia, Calif.) and reverse-transcribed using a High Capacity cDNA Reverse Transcription Kit (Applied Biosystems, Foster City, Calif.) according to manufacturers' instructions. cDNA was amplified using Taqman Universal Master Mix and Taqman Gene Expression Assays which were pre-loaded onto custom Taqman Arrays (Applied Biosystems).
Cells were then cultured for an additional day in MCDB-131 medium supplemented with 2% fatty acid-free BSA, 0.0012 g/ml sodium bicarbonate, 1× GlutaMax™, 4.5 mM D-Glucose, 100 ng/ml GDF8, and 0.1 μM MCX compound. […]
Test [3] has the same test system. The following applies: air-liquid interface, 1000 nM ALK5 inhibitor in Stages 5 and 6.
Protocol: Cells of the human embryonic stem cell line H1 (passage 40) were seeded as single cells at 1×10^5 cells/cm^2 on […] ™ (1:30 dilution; BD Biosciences, NJ)-coated dishes in a media comprising DMEM-F12 (Invitrogen, Ca), GlutaMax™ (1:100 dilution, Invitrogen), 0.25 mM ascorbic acid (Sigma, MO), 100 ng/ml of FGF2 (R & D systems, MN), 1 ng/ml of TGF-β (R & D systems), ITS-X (1:100 dilution), 2% fatty-acid free BSA (Lampire, PA), and 20 ng/ml of IGF-1 (R & D systems), supplemented with 10 μM of Y27632 (Rock inhibitor, Catalog No. Y0503, Sigma-Aldrich). Forty-eight hours post-seeding, cultures were washed in incomplete PBS (phosphate buffered saline without Mg or Ca). The cells were then differentiated according to the following protocol: • a. Stage 1 (3 days): Cells were cultured for one day in MCDB-131 medium (Invitrogen Catalog No. 10372-019) supplemented with 2% fatty acid-free BSA (Proliant, Catalog No. 68700); 0.0012 g/ml sodium bicarbonate (Sigma-Aldrich, Catalog No. S3187); 1× GlutaMax™ (Invitrogen, Catalog No. 35050-079); 4.5 mM D-glucose (Sigma-Aldrich, Catalog No. G8769); 100 ng/ml GDF8 (R&D Systems); and 1 μM MCX compound. Cells were then cultured for an additional day in MCDB-131 medium supplemented with: 2% fatty acid-free BSA; 0.0012 g/ml sodium bicarbonate; 1× GlutaMax™; 4.5 mM D-Glucose; 100 ng/ml GDF8; and 0.1 μM MCX compound. […]
Test [4] shares this test system. The following applies: air-liquid interface; mRNA at Stage 6 day 5 and day 8.
Protocol: Cells of the human embryonic stem cell line H1 (passage 42) were seeded as single cells at 1×10^5 cells/cm^2 on […] ™ (1:30 dilution; BD Biosciences, NJ)-coated dishes in a media comprising of DMEM-F12 (Invitrogen, Ca), GlutaMax™ (1:100 dilution, Invitrogen), 0.25 mM ascorbic acid (Sigma, MO), 100 ng/ml of FGF2 (R & D systems, MN), 1 ng/ml of TGF-β (R & D systems), ITS-X (1:100 dilution), 2% fatty-acid free BSA (Lampire, PA), and 20 ng/ml of IGF-1 (R & D systems), supplemented with 10 μM of Y27632 (Rock inhibitor, Catalog No. Y0503, Sigma). Forty-eight hours post-seeding, cultures were washed in incomplete PBS (phosphate buffered saline without Mg or Ca). The cells were then differentiated according to the following protocol: • a) Stage 1 (3 days): Cells were cultured for one day in MCDB-131 medium (Invitrogen Catalog No. 10372-019) supplemented with 2% fatty acid-free BSA (Proliant Catalog No. 68700), 0.0012 g/ml sodium bicarbonate (Sigma-Aldrich Catalog No. S3187); 1× GlutaMax™ (Invitrogen Catalog No. 35050-079); 4.5 mM D-glucose (Sigma-Aldrich Catalog No. G8769); 100 ng/ml GDF8 (R&D Systems); and 1 μM MCX compound. Cells were then cultured for an additional day in MCDB-131 medium supplemented with 2% fatty acid-free BSA, 0.0012 g/ml sodium bicarbonate, 1× GlutaMax™, 4.5 mM D-glucose, 100 ng/ml GDF8, and 0.1 μM MCX compound. […]
Test [5] shares this test system. As to the kind of experiment: Real-time PCR of Stage 6 cells at the air-liquid interface with gamma secretase inhibitor XX (Example 12). It is filed as cell-based. As to conditions: 100 nM to 5000 nM at Stage 6; mRNA at Stage 6 day 4 and day 8. How it is done: This example highlights that NOTCH inhibitors, such as gamma secretase inhibitors, further enhance maturation markers of β cells while retaining expression of NKX6.1.
At Stage 6, various doses (100 nM to 5000 nM) of gamma Secretase inhibitor XX (EMD, #565789) were tested. mRNA was collected at Stage 6 day 4 and Stage 6 day 8. FIG. 21 depicts the PCR data for key β cell maturation markers along with pancreatic progenitor markers.

As for `Cc1cccc(-c2[nH]ncc2-c2ccc3ncccc3n2)n1` [ALK5 inhibitor II], the “co-expression of NKX6.1 and chromogranin-A (immunostaining)” value in test [1] (Stage 6 cells at the air-liquid interface, 1 micro molar inhibitor) was “co-expression of NKX6.1 and chromogranin-A”. The “number of NKX6.1 positive cells co-expressing insulin or chromogranin-A” value in test [1] (filter inserts at the air-liquid interface) is given as “significantly enhanced”; in test [1] (same protocol on traditional monolayer cultures), “failed to show significant numbers”. In addition, the “insulin expression at Stage 6 as compared to Stage 5” value in test [2] (cultures at the air-liquid interface) is given as “enhancement”; in test [2] (planar cultures treated at Stage 5 and Stage 6), “drop”. Besides, in test [3], the expression of glucagon result is on record as “significantly enhanced”. Besides, in test [3], the expression of insulin entry is recorded as “significantly enhanced”. Moreover, the “expression of MAFA on removal of the inhibitor at Stage 6” value in test [4] is reported as “dramatic drop”.

Take `C[C@H](NC(=O)Cc1cc(F)cc(F)c1)C(=O)N[C@@H]1C(=O)N(C)c2ccccc2-c2ccccc21` [gamma Secretase inhibitor XX]: in test [5], the Amylin expression entry was “significantly upregulated”, the MAFA expression result was “significantly upregulated”, the NKX6.1 expression entry was “not significantly affected” and the PTF1a expression entry was “significantly down regulated”. Moreover, in test [5], the SOX9 expression result is given as “significantly down regulated” and the insulin expression entry is listed as “significantly upregulated”.
